The text below walks through data of PubChem BioAssay (NCI).

Among the test systems are T-47D breast; HCT-116 colon; SK-MEL-2 melanoma; HT29 colon; UACC-62 melanoma; HOP-62 NSCLC; CCRF-CEM leukemia; DU-145 prostate; U251 CNS; NCI/ADR-RES ovarian; COLO 205 colon; SF-268 CNS; A549 NSCLC; 786-0 renal; SF-539 CNS.
Holding throughout (experiment): growth of human tumour cells (NCI), 48 h

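Method: 48-hour compound exposure of cells in 96-well plates, five concentrations, linear interpolation of endpoints. At the TGI there is no net growth.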

Consider `O=C1C=C/C(=C/[C@H]2SSC=C[C@]23C=CC(=O)C3)C1`, for which the TGI is greater than 100 µM in the test on T-47D breast; 22 µM with HCT-116 colon; greater than 76.2 µM with SK-MEL-2 melanoma; 32.2 µM in the test on HT29 colon; 58.7 µM in the test on UACC-62 melanoma; greater than 73.8 µM with HOP-62 NSCLC. The TGI in the test on CCRF-CEM leukemia was 9.27 µM; in the test with DU-145 prostate it was 47.3 µM; in the test on U251 CNS, greater than 100 µM; with NCI/ADR-RES ovarian it was 68.1 µM; in the test with COLO 205 colon, 53 µM; with SF-268 CNS it was greater than 85.2 µM. The TGI stood at 63.2 µM in the test with A549 NSCLC, 28.7 µM in the test on 786-0 renal and 61.3 µM in the test with SF-539 CNS.
With `N#CC(NNC(=O)c1ccccc1O)c1c(O)ccc2ccccc12` (stereo not given), the TGI was 18.7 µM in the test on T-47D breast; 14.8 µM in the test with HCT-116 colon; 33.3 µM with SK-MEL-2 melanoma; greater than 87.7 µM with HT29 colon; 9.32 µM in the test on UACC-62 melanoma; 29.5 µM in the test on HOP-62 NSCLC. For the same molecule, the TGI in the test with CCRF-CEM leukemia was greater than 90.9 µM; in the test on DU-145 prostate it was 18.4 µM; with U251 CNS, 37.1 µM; in the test on NCI/ADR-RES ovarian, 19.3 µM; in the test with COLO 205 colon it was 23.6 µM; in the test with SF-268 CNS, 64.9 µM. In addition, the results for the TGI in the test with A549 NSCLC, with 786-0 renal and in the test on SF-539 CNS were 26.8 µM, 58.8 µM and 23.1 µM, respectively.
For the molecule `O=C1c2ccccc2C(=O)c2sc(Nc3cc(Cl)ccc3Cl)nc21`, the TGI in the test with T-47D breast stood at 34.3 µM; in the test on HCT-116 colon it was 13.7 µM; in the test with SK-MEL-2 melanoma, 31.6 µM; in the test on HT29 colon, 36.1 µM; in the test on UACC-62 melanoma it was 6.27 µM; in the test with HOP-62 NSCLC, 28.9 µM. Further, the TGI with CCRF-CEM leukemia is greater than 100 µM; in the test on DU-145 prostate, 24.6 µM; in the test on U251 CNS, 33.5 µM; with NCI/ADR-RES ovarian, 7.31 µM; with COLO 205 colon it was 34 µM; in the test with SF-268 CNS, 21 µM. In addition, the TGI amounted to 42.2 µM with A549 NSCLC, 22.6 µM with 786-0 renal and 13.4 µM with SF-539 CNS.
For the molecule `CCCCCCCCCCCCC1N=C(N)NC2(CCCO2)C1C(=O)OC` (stereo not given), the TGI in the test with T-47D breast amounted to 27.7 µM; in the test with HCT-116 colon it was 7.32 µM; in the test with SK-MEL-2 melanoma it was 20.9 µM; in the test with HT29 colon, 3.48 µM; in the test with UACC-62 melanoma, 14.8 µM; in the test with HOP-62 NSCLC, 23.8 µM. Besides, the TGI with CCRF-CEM leukemia turned out to be 5.83 µM; in the test with DU-145 prostate, 33.2 µM; with U251 CNS it was 3.2 µM; in the test with NCI/ADR-RES ovarian, 42.9 µM; in the test on COLO 205 colon, 10.9 µM; in the test with SF-268 CNS, 14.8 µM. Moreover, the results for the TGI in the test with A549 NSCLC, in the test on 786-0 renal and in the test with SF-539 CNS were 30.9 µM, 16.9 µM and 15.8 µM, respectively.
For `CC1CCCN1CCCOC(=O)c1ccc(OC2C=CCCC2)cc1` (stereo not given), the TGI in the test on T-47D breast is 34.4 µM; in the test with HCT-116 colon it was 35.8 µM; in the test on SK-MEL-2 melanoma, greater than 100 µM; in the test on HT29 colon it was 60.4 µM; with UACC-62 melanoma it was greater than 100 µM; in the test on HOP-62 NSCLC, 42.1 µM. Besides, the TGI in the test with CCRF-CEM leukemia is 66.7 µM; in the test with DU-145 prostate, greater than 100 µM; with U251 CNS, greater than 100 µM; with NCI/ADR-RES ovarian, greater than 100 µM; in the test with COLO 205 colon, 31.4 µM; in the test with SF-268 CNS it was greater than 100 µM. Further, the TGI in the test on A549 NSCLC was greater than 100 µM; with 786-0 renal, 40.4 µM; with SF-539 CNS it was 74.9 µM.
`CN(C)C(=O)Oc1ccc(C(=S)Nc2ccccc2)cc1`: the TGI in the test with T-47D breast, in the test with HCT-116 colon, with SK-MEL-2 melanoma, in the test on HT29 colon, in the test on UACC-62 melanoma and with HOP-62 NSCLC was greater than 100 µM each time. Besides, the TGI is 79.6 µM with CCRF-CEM leukemia; greater than 100 µM in the test on DU-145 prostate; greater than 100 µM in the test on U251 CNS; 91.8 µM in the test with NCI/ADR-RES ovarian; greater than 100 µM in the test with COLO 205 colon; greater than 100 µM with SF-268 CNS. The TGI in the test with A549 NSCLC, with 786-0 renal and with SF-539 CNS was greater than 100 µM throughout.
On to `Cc1cc(C)nc(NS(=O)(=O)c2ccc(Nc3c4ccccc4nc4ccc(C(=O)Nc5ccc(S(=O)(=O)N=C(N)N)cc5)cc34)cc2)n1`, for which the TGI in the test on T-47D breast, with HCT-116 colon, in the test with SK-MEL-2 melanoma, in the test with HT29 colon, in the test with UACC-62 melanoma and in the test on HOP-62 NSCLC was greater than 100 µM each time. For the same molecule, the TGI in the test on CCRF-CEM leukemia, in the test with DU-145 prostate, in the test with U251 CNS, in the test with NCI/ADR-RES ovarian, in the test on COLO 205 colon and with SF-268 CNS was greater than 100 µM each time. The TGI with A549 NSCLC was greater than 100 µM; in the test on 786-0 renal, 53 µM; in the test with SF-539 CNS, greater than 100 µM.
As for `O=C1C2CC[C@@H]3C(=O)C(Cl)(Cl)[C@@H]3CCC2C1(Cl)Cl` (stereo not given in full), the TGI with T-47D breast was greater than 100 µM; with HCT-116 colon it was greater than 100 µM; with SK-MEL-2 melanoma, greater than 100 µM; in the test with HT29 colon, greater than 100 µM; with UACC-62 melanoma, greater than 100 µM; in the test with HOP-62 NSCLC, greater than 29.7 µM. In addition, the TGI was 63.8 µM with CCRF-CEM leukemia; greater than 100 µM with DU-145 prostate; greater than 100 µM in the test on U251 CNS; greater than 100 µM with NCI/ADR-RES ovarian; greater than 100 µM in the test on COLO 205 colon; greater than 100 µM with SF-268 CNS. Further, the TGI is greater than 100 µM with A549 NSCLC, greater than 100 µM in the test on 786-0 renal and greater than 90.5 µM in the test on SF-539 CNS.
Consider `C=CCOC(=O)N1c2ccc(O)cc2[C@@]23O[C@@]24[C@@H]1C#C/C=C\C#C[C@]3(O)C(=O)C[C@@H]4C`, for which the TGI in the test on T-47D breast, with HCT-116 colon, with SK-MEL-2 melanoma, in the test on HT29 colon, in the test with UACC-62 melanoma and in the test with HOP-62 NSCLC was greater than 100 µM each time. Further, the TGI in the test with CCRF-CEM leukemia, in the test on DU-145 prostate, in the test with U251 CNS, in the test on NCI/ADR-RES ovarian, in the test on COLO 205 colon and in the test on SF-268 CNS was greater than 100 µM each time. Besides, the TGI with A549 NSCLC, in the test with 786-0 renal and in the test with SF-539 CNS was greater than 100 µM throughout.
